Measured values published in PMC9368227, “Investigation of Radiotracer Metabolic Stability In Vitro with CYP-Overexpressing Hepatoma Cell Lines” (Cells, 2022).

Experiments:
HepG2 CYP1A2 [1] = assay: Competitive coincubation of [18F]1 with competitors, HepG2 CYP1A2; conditions: 1 h; competitor 1 or 10 µM
Protocol: (§1) Radio thin-layer chromatography (radio-TLC) was carried out on reversed-phase TLC plates (ALUGRAM RP-18W/UV254 from Macherey-Nagel, Düren, Germany) with a mobile phase of 45% ACN in water containing 0.1% trifluoroacetic acid. The samples (2 µL) were spotted onto the TLC plate. The line of origin and the front line were labeled with 1/5 of the sample activity concentration. To track the Rf value of the intact radiotracer, each TLC was spotted with the intact tracer as reference in the middle. Detection of the activity signals was achieved after 10–30 min development on radioluminographic imaging plates (FUJIFILM, Tokyo, Japan) and subsequent readout with Fuji BAS 5000® or Amersham™ Typhoon™ from GE Healthcare (Uppsala, Sweden). The resulting chromatographic profile was analyzed and integrated with the help of AIDA Image Analysis Software (version 5.1). For data depiction, the fraction of each species (intact radiotracer, metabolite, [^18F]fluoride) was plotted.
(§2) Incubations were conducted for up to 2 h in a 96-well plate in KHB with a total incubation volume of 50 µL and an ethanol concentration of 0.4%. For the incubation with radiotracers, an activity of 100–200 kBq/well at the start of the experiment was used.
(§3) Our last interest within this study was to test if the tracer itself could function as an indicator for the conversion of other substrates acting via inhibition of or competition with the CYP enzymes. In this regard, alternative substrates were added to the incubation mixtures with [^18F]1. The investigated substrates covered testosterone, caffeine, progesterone, compound 3, tebufelone, and RWJ63556 [44] (10 µM for all substances). Furthermore, the influence of testosterone on the metabolic turnover of [^18F]1 was investigated over a concentration range of 1–50 µM.
Figure 7 Coincubation of [^18F]1 and different competitors with (A) HepG2 CYP1A2 and (B) HepG2 CYP2C19. […] Each competitor/inhibitor was incubated with [^18F]1 for 1 h followed by radio-TLC analysis. Activity concentrations of 94–197 kBq/well (1.9–3.9 MBq/mL) were used at start of experiment, which correspond to a concentration of 120–125 nM. Statistical analysis performed with Dunnett’s multiple comparison (post hoc test) according to the intact tracer amount (* p < 0.05; *** p < 0.001; **** p < 0.0001; n = 4).

HepG2 CYP2C19 [2] = assay: Competitive coincubation of [18F]1 with competitors, HepG2 CYP2C19; conditions: 1 h; competitor 10 µM; testosterone 1–50 µM
Protocol: as §1, §2, §3
Figure 7 Coincubation of [^18F]1 and different competitors with (A) HepG2 CYP1A2 and (B) HepG2 CYP2C19. […] Each competitor/inhibitor was incubated with [^18F]1 for 1 h followed by radio-TLC analysis. […]

HepG2 cells = assay: Testosterone control incubation (conversion to androstenedione), LC-MS/MS; conditions: 2.5 µM testosterone; within 2 h; 3 × 10^5 cells/well in 96-well plate
Protocol: Testosterone (SIGMA-ALDRICH, Taufkirchen, Germany) was dissolved in pure ethanol. Control incubations with testosterone were carried out for 2 h with 2.5 µM testosterone, 0.05% ethanol, and a total volume of 150 µL in the cavities of a 96-well plate. The supernatant was prepared and analyzed by UPLC–MS/MS (System 2; 45% isocratic elution). Testosterone was monitored at transitions for [M + H]^+ 289.24 > 97.08 and 289.24 > 109.05 with cone voltage 52 V and collision energy 20 V, while the CYP-mediated metabolite androstenedione was monitored at transitions for [M + H]^+ 287.22 > 97.08 (collision energy 18 V) and 287.22 > 109.05 (collision energy 20 V) with a cone voltage of 50 V each.

HepG2 CYP1A2 [3] = assay: Radiotracer metabolic stability, CYP1A2-overexpressing HepG2 cells; type: in vitro ADME, human; conditions: HepG2 CYP1A2, up to 2 h; radio-TLC
Protocol: (§4) CYP-overexpressing human hepatocellular carcinoma cells (HepG2) were previously generated on the basis of subcloning human CYP1A2 [18], CYP2C19 [20], and CYP3A4 [21] cDNA into a lentiviral expression vector. The cDNA expression in the resulting vector was controlled by the human cytomegalovirus (CMV) promoter. The lentivirus expression vectors were used to produce recombinant lentivirus particles according to standard methods to infect HepG2 cells. Infected cells were selected with 3 µg/mL blasticidin for CYP2C19 and CYP3A4 and 500 µg/mL zeocin for CYP1A2 overexpression 48 h after infection. Within 3–4 weeks, antibiotic-resistant cell colonies were picked to obtain single cell-derived HepG2 clones. For more detailed information on the generation procedure of CYP-overexpressing HepG2 cells, see Steinbrecht et al..
(§5) HepG2 cells were cultured in DMEM GlutaMax (Gibco, Paisley, UK) with 10% fetal calf serum (FCS) and with selective antibiotics (penicillin/streptomycin for wildtype, Zeocin (InvivoGen, San Diego, CA, USA) for CYP1A2, and Blasticidin (Gibco, Carlsbad, CA, USA) for CYP2C19 and CYP3A4 cultures). […] Cell density was determined with a cell counter (CASY® Model TT from Schärfe System, Reutlingen, Germany). […]
Incubations with radiotracer compounds were conducted, on the one hand, with radioactive ^18F-labeled compounds alone (time dependency) and, on the other hand, in the presence of 50 µM nonradioactive reference (carrier addition). For the investigation of a time-dependent metabolite formation, 2 µL aliquots were withdrawn from the supernatant, directly spotted onto the TLC plate, and analyzed as described above. […]
UPLC–MS analyses were performed to verify the degradation behavior of the test compounds and to gain insights into the identity of the formed metabolites. […] Additionally, incubations with the nonradioactive references were carried out with 100 nM or 50 µM (according to the carrier-added samples) and analyzed. UPLC–MS/MS was performed using System 2 (55% isocratic elution for quantification of intact compound, or 25–75% gradient for nonradioactive metabolite analysis). […]

HepG2 CYP3A4 = assay: Radiotracer metabolic stability, CYP3A4-overexpressing HepG2 cells; type: in vitro ADME, human; conditions: HepG2 CYP3A4; radio-TLC
Protocol: as §4
as §5, with “cultures). As a negative control, cultures of CHO cultivated in Ham’s F-12 medium (Gibco) with 10% FCS and 2 mM glutamine were added for the radiotracer experiments.” for “cultures).”

HepG2 CYP2C19 [4] = assay: Radiotracer metabolic stability, CYP2C19-overexpressing HepG2 cells; type: in vitro ADME, human; conditions: radio-TLC
Protocol: as §4
HepG2 cells were cultured in DMEM GlutaMax (Gibco, Paisley, UK) with 10% fetal calf serum (FCS) and with selective antibiotics (penicillin/streptomycin for wildtype, Zeocin (InvivoGen, San Diego, CA, USA) for CYP1A2, and Blasticidin (Gibco, Carlsbad, CA, USA) for CYP2C19 and CYP3A4 cultures). As a negative control, cultures of CHO cultivated in Ham’s F-12 medium (Gibco) with 10% FCS and 2 mM glutamine were added for the radiotracer experiments. Cells were handled under a laminar flow hood (Thermo Scientific^TM Safe 2020, Langenselbold, Germany) and were split once or twice a week by trypsinization. Cell cultures were stored horizontally in a humidified incubator (Heracell240i) at 37 °C and 5% CO2. During the time of experimental work, the utilized cell lines were regularly checked for mycoplasma. Cells were seeded in duplicates into a 96-well plate (CellStar®) with a density of 3 × 10^5 cells/well and cultured until the next day at 37 °C and 5% CO2. Cell density was determined with a cell counter (CASY® Model TT from Schärfe System, Reutlingen, Germany). Before the addition of substrates, cells were washed twice with Krebs–Henseleit buffer (KHB). The HEPES-supplemented Krebs–Henseleit buffer (pH 7.4, KHB) was freshly prepared using HEPES (5.95 g/L), D-glucose (2.0 g/L), magnesium sulfate (0.141 g/L), potassium dihydrogenphosphate (0.16 g/L), potassium chloride (0.35 g/L), sodium chloride (6.9 g/L), calcium chloride dihydrate (0.373 g/L), and sodium bicarbonate (2.1 g/L), followed by adjustment to pH 7.4 with NaOH. The utilized substances within this study were neither found (see Supplementary Materials, Figure S14) nor reported to be cytotoxic within the utilized concentration range and incubation duration.
Incubations with radiotracer compounds were conducted, on the one hand, with radioactive ^18F-labeled compounds alone (time dependency) and, on the other hand, in the presence of 50 µM nonradioactive reference (carrier addition). For the investigation of a time-dependent metabolite formation, 2 µL aliquots were withdrawn from the supernatant, directly spotted onto the TLC plate, and analyzed as described above. The same procedure was performed for carrier-added samples.
UPLC–MS analyses were performed to verify the degradation behavior of the test compounds and to gain insights into the identity of the formed metabolites. Using radiotracer incubation samples, 40 µL aliquots of the carrier-added incubations were withdrawn followed by addition of 160 µL of ACN and centrifugation (14,000 rpm (18,800–20,800× g), 4 °C, 5 min). Samples were frozen at −20 °C, and activity was allowed to decay before further mass-spectrometric analyses. Additionally, incubations with the nonradioactive references were carried out with 100 nM or 50 µM (according to the carrier-added samples) and analyzed. UPLC–MS/MS was performed using System 2 (55% isocratic elution for quantification of intact compound, or 25–75% gradient for nonradioactive metabolite analysis). The MRM mode was optimized with a solution of respective reference compounds diluted in eluent. […]

With `Cc1ccc(-c2cc(CCF)nn2-c2ccc(S(C)(=O)=O)cc2)cc1` [compound 3] the “Effect of coincubation on metabolic profile / intact [18F]1 (in words)” value (HepG2 CYP1A2 [1]) was “slightly increased the intact tracer amount”.

With `C[C@]12CC[C@H]3[C@@H](CCC4=CC(=O)CC[C@@]43C)[C@@H]1CC[C@@H]2O` [testosterone] the “Effect of coincubation on metabolic profile / intact [18F]1 (in words)” value (HepG2 CYP1A2 [1]) was “no change in the metabolic profile”, the “Effect of coincubation on intact [18F]1 amount (in words)” value (HepG2 CYP2C19 [2]) was “slight increase in the amount of intact radiotracer” and the Testosterone consumed (HepG2 cells) was “more than 50%”.

In the case of `Cc1ccc(-c2cc(CC[18F])nn2-c2ccc(S(C)(=O)=O)cc2)cc1` [[^18F]3, 3-([^18F]fluoroethyl)-1-[4-(methylsulfonyl)phenyl]-5-(p-tolyl)-1H-pyrazole], the “Metabolic turnover / stability of radiotracer (in words)” value (HepG2 CYP1A2 [3]) is reported as “pronounced slower degradation”, the “Summarized percentage of metabolites” value (HepG2 CYP3A4) is reported as “below 3%” and the Defluorination (HepG2 CYP2C19 [4]; 1 h incubation) is reported as “only noted during incubation with HepG2 CYP2C19”. The “Metabolic turnover / stability of radiotracer (in words)” value (HepG2 CYP2C19 [4]; HepG2 CYP2C19, up to 2 h) was “pronounced slower degradation”.

With `Cn1c(=O)c2c(ncn2C)n(C)c1=O` [caffeine] the “Effect of coincubation on metabolic profile / intact [18F]1 (in words)” value (HepG2 CYP1A2 [1]) was “no change in the metabolic profile”.
